Measurements: EP1089755B1, “PHARMACEUTICAL PREPARATIONS FOR USE IN COMBATTING OR PREVENTING SURFACE INFECTIONS CAUSED BY MICROORGANISMS” (priority 1998, dated 2000)
Converted amounts (≈) assume the structure as drawn.

Key:
C. glabrata Y110 [1] = assay: MIC of antifungal agents (96-well turbidity assay, 24 hours); format: cell-based; conditions: for MIC: Nakaseomyces glabratus, Y110, 24 h, read-out: minimum inhibitory concentrations (MIC)
C. albicans Y127 = assay: as above; format: cell-based; conditions: isolate Y127, SLM; for MIC: Candida albicans, read-out: minimum inhibitory concentrations (MIC)
Candida glabrata Y110 = assay: MIC in the presence of saliva (SLM or SLM/Saliva, pH 7.5); format: cell-based; conditions: Nakaseomyces glabratus
C. albicans Y106 = assay: MIC of antifungal agents (96-well turbidity assay, 24 hours); format: cell-based; conditions: Candida albicans, isolate Y106, SLM, read-out: minimum inhibitory concentrations (MIC)
C. glabrata Y111 = assay: as above; format: cell-based; conditions: Nakaseomyces glabratus, isolate Y111, SLM, read-out: minimum inhibitory concentrations (MIC)
C. glabrata Y110 [2] = assay: Synergy experiments (8 by 8 dilution matrix, Prichard and Shipman method); format: cell-based, Candida glabrata
C. glabrata Y110 [3] = assay: Candida growth inhibition and MIC at several pH's in SLM or RPMI (96-well turbidity assay); format: cell-based, Candida glabrata; conditions: for MIC: Nakaseomyces glabratus, read-out: minimal inhibitory concentrations (MIC)
C. albicans ATCC 10231 = assay: MIC of antifungal agents (96-well turbidity assay, 24 hours); format: cell-based; conditions: Candida albicans, isolate 10231 (ATCC strain), SLM, read-out: minimum inhibitory concentrations (MIC)
C. albicans Y098 = assay: as above; format: cell-based; conditions: Candida albicans, isolate Y098, SLM, read-out: minimum inhibitory concentrations (MIC)
C. glabrata Y112 = assay: as above; format: cell-based; conditions: Nakaseomyces glabratus, isolate Y112, SLM, read-out: minimum inhibitory concentrations (MIC)
C. tropicana Y140 = assay: as above; format: cell-based; conditions: isolate Y140 (RPMI), RPMI-medium instead of SLM, read-out: minimum inhibitory concentrations (MIC)

Which MIC (C. glabrata Y110 [1]; isolate Y110, SLM) does the source give for `OC(Cn1cncn1)(Cn1cncn1)c1ccc(F)cc1F` [Fluconazole, fluconazole] here?
The MIC was 159 µg/mL.

What about the “minimum inhibitory concentrations (MIC)” value (C. glabrata Y110 [1]; isolate Y110, SLM) of the same compound?
Its value is 156 ± 50 µg/mL.

And the MIC (C. albicans Y127)?
Its MIC is 10 µg/mL.

And the MIC (Candida glabrata Y110; Y110, SLM, pH 7.5)?
Its MIC is 100 µg/mL.

And the MIC (Candida glabrata Y110; Y110, SLM/Saliva (50%/50%), 24 hours)?
Its MIC is 40 µg/mL.

And the MIC (Candida glabrata Y110; Y110, SLM, pH 7.5, 24 hours)?
Its MIC is 100 µg/mL.

What about the MIC (C. albicans Y106) of the same compound?
Its MIC is 10 µg/mL.

And the MIC (C. glabrata Y111)?
Its MIC is 24 ± 7 µg/mL.

What about the UV (C. glabrata Y110 [2]; Fluconazole 0.0033 mg/ml alone) of the same compound?
Its UV is 1.150.

And the UV (C. glabrata Y110 [2]; Fluconazole 0.0066 mg/ml alone)?
The UV was 1.167.

What about the UV (C. glabrata Y110 [2]; Fluconazole 0.01 mg/ml alone) of the same compound?
Its UV is 1.154.

What about the UV (C. glabrata Y110 [2]; Fluconazole 0.033 mg/ml alone) of the same compound?
The UV was 1.127.

What about the UV (C. glabrata Y110 [2]; Fluconazole 0.1 mg/ml alone) of the same compound?
Its UV is 0.618.

And the UV (C. glabrata Y110 [2]; Fluconazole 0.2 mg/ml alone)?
The UV was 0.003.

And the UV (C. glabrata Y110 [2]; Fluconazole 0.33 mg/ml alone)?
The UV was 0.003.

And the UV (C. glabrata Y110 [2]; Fluconazole 0.5 mg/ml alone)?
The UV was 0.004.

And the inhibition at 3.3 µg/mL (C. glabrata Y110 [2]; Nakaseomyces glabratus, Y110, Fluconazole 0.0033 mg/ml alone)?
Its inhibition at 3.3 µg/mL is 0%.

What about the inhibition at 6.6 µg/mL (C. glabrata Y110 [2]; Nakaseomyces glabratus, Y110, Fluconazole 0.0066 mg/ml alone) of the same compound?
Its inhibition at 6.6 µg/mL is 0%.

What about the inhibition at 10 µg/mL (C. glabrata Y110 [2]; Nakaseomyces glabratus, Y110, Fluconazole 0.01 mg/ml alone) of the same compound?
Its inhibition at 10 µg/mL is 0%.

What about the inhibition at 33 µg/mL (C. glabrata Y110 [2]; Nakaseomyces glabratus, Y110, Fluconazole 0.033 mg/ml alone) of the same compound?
Its inhibition at 33 µg/mL is 0%.

What about the inhibition at 100 µg/mL (C. glabrata Y110 [2]; Nakaseomyces glabratus, Y110, Fluconazole 0.1 mg/ml alone) of the same compound?
The inhibition at 100 µg/mL was 39.5%.

What about the inhibition at 200 µg/mL (C. glabrata Y110 [2]; Nakaseomyces glabratus, Y110, Fluconazole 0.2 mg/ml alone) of the same compound?
Its inhibition at 200 µg/mL is 99.8%.

And the inhibition at 330 µg/mL (C. glabrata Y110 [2]; Nakaseomyces glabratus, Y110, Fluconazole 0.33 mg/ml alone)?
Its inhibition at 330 µg/mL is 99.8%.

What about the inhibition at 500 µg/mL (C. glabrata Y110 [2]; Nakaseomyces glabratus, Y110, Fluconazole 0.5 mg/ml alone) of the same compound?
Its inhibition at 500 µg/mL is 99.6%.

What about the MIC (C. glabrata Y110 [3]; Y110, RPMI, pH 5.0, 24 hours) of the same compound?
The MIC was 250 µg/mL (≈ 816 µM).

And the MIC (C. glabrata Y110 [3]; Y110, RPMI, pH 6.0, 24 hours)?
Its MIC is 110 µg/mL (≈ 359 µM).

And the MIC (C. glabrata Y110 [3]; Y110, RPMI, pH 7.0, 24 hours)?
Its MIC is 60 µg/mL (≈ 196 µM).

What about the MIC (C. glabrata Y110 [3]; Y110, SLM, pH 5.6, 24 hours) of the same compound?
The MIC was 200 µg/mL (≈ 653 µM).

What about the MIC (C. glabrata Y110 [3]; Y110, SLM, pH 6.5, 24 hours) of the same compound?
The MIC was 100 µg/mL (≈ 327 µM).

And the MIC (C. glabrata Y110 [3]; Y110, SLM, pH 7.5, 24 hours)?
Its MIC is 100 µg/mL (≈ 327 µM).

And the “effect of an increase in pH of the medium on inhibition” value (C. glabrata Y110 [3]; SLM and RPMI)?
Its value is “more efficient inhibition”.

Which MIC (C. glabrata Y110 [1]; isolate Y110, SLM) does the source give for `C[C@@H]1[C@H](O)[C@@H](C)/C=C/C=C/C=C/C=C/C=C/C=C/C=C/[C@H](O[C@@H]2O[C@H](C)[C@@H](O)[C@H](N)[C@@H]2O)C[C@@H]2O[C@](O)(C[C@@H](O)C[C@@H](O)[C@H](O)CC[C@@H](O)C[C@@H](O)CC(=O)O[C@H]1C)C[C@H](O)[C@H]2C(=O)O` [Amphoterricin B, Amphotericin B] here?
The MIC was 0.173 ± 0.06 µg/mL.

What about the MIC (C. albicans Y127) of the same compound?
The MIC was 0.15 µg/mL.

And the “minimum inhibitory concentrations (MIC)” value (C. albicans Y127)?
Its value is 0.15 ± 0.07 µg/mL.

And the MIC (C. albicans Y106)?
The MIC was 0.082 ± 0.03 µg/mL.

And the MIC (C. glabrata Y111)?
Its MIC is 0.14 ± 0.07 µg/mL.

What about the MIC (C. albicans ATCC 10231) of the same compound?
The MIC was 0.06 ± 0.05 µg/mL.

What about the MIC (C. albicans Y098) of the same compound?
The MIC was 0.08 ± 0.03 µg/mL.

What about the MIC (C. glabrata Y112) of the same compound?
The MIC was 0.4 ± 0.05 µg/mL.

Which MIC (C. glabrata Y110 [1]; isolate Y110 (RPMI), RPMI-medium instead of SLM) does the source give for `Nc1nc(=O)[nH]cc1F` [5-Fluorocytosine, 5-fluorocytosine] here?
Its MIC is 0.029 ± 0.005 µg/mL.

And the MIC (C. tropicana Y140)?
The MIC was 35 ± 7.07 µg/mL.
